System: class I bound peptides
Assay: HLA-I immunoprecipitation and LC-MS/MS immunopeptidome of cell lines +/- IFN-γ
Assay type: cell-based, human
Description: Up to 40 million or 0.2 g of MCC cells were immunoprecipitated. Briefly, MCC cells were harvested and lysed in ice-cold lysis buffer containing […] (pH 8.0), 1 mM EDTA (pH 8.0), 0.1M sodium chloride, Triton X-100, 0.06M octyl β-d-glucopyranoside, 100 U/mL DNAse I, 1 mM phenylmethanesulfonyl fluoride (all from Sigma Aldrich), and protease inhibitor cocktail (Roche Diagnostics). Cell lysate was centrifuged at 12,700 rpm at 4° C. for 22 min. Lysate supernatant was coupled with Gammabind Plus sepharose beads (GE Healthcare) and incubated with 10 μg of HLA-I antibody (Clone W6/32, Santa Cruz Biotechnologies) at 4° C. under rotary agitation for 3 h. After incubation, the lysate-bead-antibody mixture was briefly centrifuged and the supernatant was discarded. Beads were washed with lysis buffer, consisting of wash buffer containing 40 mM Tris (pH 8.0), 1 mM EDTA (pH 8.0), 0.1M sodium chloride, 0.06M octyl β-d-glucopyranoside, and 20 mM Tris buffer, without protease inhibitors. […] Peptides of up to three immunoprecipitations were combined, acid eluted, and analyzed using LC/MS-MS. […] Peptides were eluted in a 6-30% gradient (EasyLC 1000 or 1200, Thermo Fisher Scientific) and analyzed on a QExactive Plus, Fusion Lumos, or Orbitrap Exploris 480 (Thermo Fisher Scientific). […] Fractions were analyzed on a Fusion Lumos or Orbitrap Exploris 480 equipped with a FAIMSpro interface. […]

IFN-γ: interferon gamma used to stimulate MCC cell lines
median fold increase in the abundance of class I bound peptides (across 7 cell lines, following IFN-γ stimulation): 12 fold
frequencies of peptides mapping to each HLA allele (cell lines with vs without IFN-γ treatment): increase in HLA-B-presented peptides

Reference: patent US20230203485A1, “METHODS FOR MODULATING MHC-I EXPRESSION AND IMMUNOTHERAPY USES THEREOF” (Dana-Farber Cancer Institute, Inc., priority 2020, published 2023)
